From ChEMBL document CHEMBL5137094, “Construction of Covalent Bisubstrate Inhibitor of Protein Kinase Reacting with Cysteine Residue at Substrate-Binding Site” (J Med Chem, 2022) come the findings set out here.

Activity calls are given as the source filed them. The calls are words filed in the database; no cut-off is given here.

For series [1], the target named is T1, cAMP-dependent protein kinase catalytic subunit alpha (Homo sapiens, UniProt P17612). Description: Binding affinity to human recombinant PKAC-alpha assessed as inactivation constant measured upto 60 mins by Western blot analysis.
Series [2] addresses T1, cAMP-dependent protein kinase catalytic subunit alpha. The experiment in a line: Covalent inhibition of human recombinant PKAC-alpha assessed as inhibition constant.
For series [3] the target is unchanged. Description: Binding affinity to human recombinant PKAC-alpha assessed as reduction in TGLI signal at 10 uM pretreated with compound followed by ARC-1063 fluorescent probe addition by time-gated luminescence intensity based displacement assay. The note with it: time 60-480 min, TDE = time-dependent effect.
For series [4] the target is unchanged. Description: Binding affinity to human recombinant PKAC-alpha assessed as inactivation constant incubated for 1 hr by time-gated luminescence intensity based displacement assay.
Series [5] shares this target. The experiment in a line: Displacement of ARC-1063 fluorescent probe from recombinant human PKAC-alpha assessed as dissociation half life preincubated for 1 hr followed by photoluminescent probe addition by time-gated luminescence intensity based assay.
Series [6] has the same target. Description: Binding affinity to human recombinant PKACalpha assessed as compound-protein adduct formation by measuring half life at 30 degreeC.
For series [7] the target is unchanged. The experiment in a line: Binding affinity to recombinant human active PKAC-alpha assessed as compound-protein adduct formation by measuring formation of three bands at 1.5 uM incubated for 1 hr by 5-TAMRA dye based immunostaining analysis.
Series [8] has as its system RAC-gamma serine/threonine-protein kinase (Homo sapiens), Q9Y243 [S472D]. The experiment in a line: Binding affinity to N-terminal 6His-tagged active recombinant human spiked Akt3 S472D mutant (117 to end residues) in human PC-3 cell lysates assessed as irreversible compound-protein adduct formation at 150 nM incubated for 1 hr by 5-TAMRA dye based Western blot analysis. In kind it is subcellular.

Series [9] has as its target cAMP-dependent protein kinase catalytic subunit beta (Homo sapiens) (UniProt P22694). Description: Binding affinity to recombinant full length human spiked PKAC-beta in human PC-3 cell lysates assessed as irreversible compound-protein adduct formation at 150 nM incubated for 1 hr by 5-TAMRA dye based Western blot analysis. In kind it is subcellular.
Series [10] concerns the target T1, cAMP-dependent protein kinase catalytic subunit alpha. The experiment in a line: Binding affinity to recombinant human spiked PKAC-alpha in human HeLa cells assessed as covalent compound-protein adduct formation by measuring multiple fluorescent band formation at 150 nM incubated for 1 hr by 5-TAMRA dye based Western blot analysis. In kind it is cell-based.
Series [11] deals with Ribosomal protein S6 kinase alpha-5 (Homo sapiens) (UniProt O75582). The experiment in a line: Binding affinity to N-terminal 6His-tagged recombinant human spiked MSK1 (2 to end residues) in human PC-3 cell lysates assessed as irreversible compound-protein adduct formation at 150 nM incubated for 1 hr by 5-TAMRA dye based Western blot analysis. In kind it is subcellular.
The target in series [12] is T2, Aurora kinase A (Homo sapiens) (UniProt O14965).
T2 sequence (whole entry): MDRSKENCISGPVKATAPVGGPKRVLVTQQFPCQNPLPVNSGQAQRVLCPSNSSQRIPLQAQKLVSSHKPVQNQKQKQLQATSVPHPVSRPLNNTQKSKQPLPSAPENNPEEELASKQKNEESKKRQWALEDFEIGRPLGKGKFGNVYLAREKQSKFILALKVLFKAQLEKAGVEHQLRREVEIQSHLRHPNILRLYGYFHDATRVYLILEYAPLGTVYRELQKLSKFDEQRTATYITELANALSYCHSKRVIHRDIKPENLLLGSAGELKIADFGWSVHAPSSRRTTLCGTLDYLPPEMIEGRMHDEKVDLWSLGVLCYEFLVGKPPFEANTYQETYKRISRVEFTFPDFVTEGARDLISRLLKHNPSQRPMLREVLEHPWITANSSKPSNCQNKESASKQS
Description: Binding affinity to N-terminal 6His-tagged active recombinant full length human spiked Aurora A in human PC-3 cell lysates assessed as irreversible compound-protein adduct formation at 150 nM incubated for 1 hr by 5-TAMRA dye based Western blot analysis. In kind it is subcellular.

Series [13] relates to RAC-gamma serine/threonine-protein kinase (Homo sapiens), Q9Y243 [S472D]. The experiment in a line: Binding affinity to N-terminal 6His-tagged active recombinant human spiked Akt3 S472D mutant (117 to end residues) in human PC-3 cell lysates assessed as irreversible compound-protein adduct formation by measuring remaining activity at 150 nM incubated for 1 hr by Akt3 antibody immunostaining based Western blot analysis. In kind it is subcellular.

Series [14] deals with T1, cAMP-dependent protein kinase catalytic subunit alpha. The experiment in a line: Binding affinity to recombinant human spiked PKAC-alpha in human U2OS cell lysates assessed as covalent compound-protein adduct formation at 1.5 uM incubated for 1 hr by 5-TAMRA dye based Western blot analysis. In kind it is subcellular.
Series [15] shares this target. The experiment in a line: Binding affinity to recombinant human spiked PKAC-alpha in human PC-3 cell lysates assessed as covalent compound-protein adduct formation at 15 nM incubated for 1 hr by 5-TAMRA dye based Western blot analysis. In kind it is subcellular.
Series [16] addresses cAMP-dependent protein kinase catalytic subunit beta (Homo sapiens) (UniProt P22694). The experiment in a line: Binding affinity to recombinant full length human spiked PKAC-beta in human PC-3 cell lysates assessed as irreversible compound-protein adduct formation by measuring remaining activity at 150 nM measured after 1 hr by […] immunostaining based Western blot analysis. In kind it is subcellular.

For series [17], the target named is T1, cAMP-dependent protein kinase catalytic subunit alpha. The experiment in a line: Binding affinity to recombinant human spiked PKAC-alpha in human U2OS cell lysates assessed as covalent compound-protein adduct formation at 1.5 uM incubated for 1 hr in presence of GSH by 5-TAMRA dye based Western blot analysis. In kind it is subcellular.
For series [18] the target is unchanged. Description: Binding affinity to recombinant human spiked PKAC-alpha in human HeLa cells assessed as covalent compound-protein adduct formation by measuring multiple fluorescent band formation at 1.5 uM incubated for 1 hr by 5-TAMRA dye based Western blot analysis. In kind it is cell-based.
Series [19] has as its target T2, Aurora kinase A (Homo sapiens). Description: Binding affinity to N-terminal 6His-tagged active recombinant full length human spiked Aurora A in human PC-3 cell lysates assessed as irreversible compound-protein adduct formation by measuring remaining activity at 150 nM incubated for 1 hr by Aurora A antibody immunostaining based Western blot analysis. In kind it is subcellular.

Series [20] concerns the target T1, cAMP-dependent protein kinase catalytic subunit alpha. The experiment in a line: Binding affinity to recombinant human spiked PKAC-alpha in human U2OS cell lysates assessed as covalent compound-protein adduct formation at 1.5 uM incubated for 1 hr in presence of PK inhibitor, staurosporin by 5-TAMRA dye based Western blot analysis. In kind it is subcellular.
For series [21] the target is unchanged. The experiment in a line: Displacement of ARC-1063 fluorescent probe from recombinant human PKAC-alpha assessed as dissociation equilibrium constant preincubated for 1 hr followed by photoluminescent probe addition by time-gated luminescence intensity based assay.
Series [22] shares this target. The experiment in a line: Displacement of ARC-1063 fluorescent probe from recombinant human PKAC-alpha assessed as binding constant (kon) preincubated for 1 hr followed by photoluminescent probe addition by time-gated luminescence intensity based assay.
For series [23] the target is unchanged. The experiment in a line: Inhibition of ARC-1063 fluorescent probe binding to recombinant human PKAC-alpha incubated for 1 hr by time-gated luminescence intensity based displacement assay.
Series [24] can be described thus: GSH reactivity in potassium phosphate buffer at pH 7.4 assessed as half life at 0.15 mM at 37 degreeC measured for 30 to 60 mins by HPLC-MS analysis. The conditions noted are these: potassium phosphate buffer with GSH, time 30-60 min. In kind it is physicochemical.

Sequence of RAC-gamma serine/threonine-protein kinase (Homo sapiens), Q9Y243 [S472D] (Q9Y243 whole entry S472D): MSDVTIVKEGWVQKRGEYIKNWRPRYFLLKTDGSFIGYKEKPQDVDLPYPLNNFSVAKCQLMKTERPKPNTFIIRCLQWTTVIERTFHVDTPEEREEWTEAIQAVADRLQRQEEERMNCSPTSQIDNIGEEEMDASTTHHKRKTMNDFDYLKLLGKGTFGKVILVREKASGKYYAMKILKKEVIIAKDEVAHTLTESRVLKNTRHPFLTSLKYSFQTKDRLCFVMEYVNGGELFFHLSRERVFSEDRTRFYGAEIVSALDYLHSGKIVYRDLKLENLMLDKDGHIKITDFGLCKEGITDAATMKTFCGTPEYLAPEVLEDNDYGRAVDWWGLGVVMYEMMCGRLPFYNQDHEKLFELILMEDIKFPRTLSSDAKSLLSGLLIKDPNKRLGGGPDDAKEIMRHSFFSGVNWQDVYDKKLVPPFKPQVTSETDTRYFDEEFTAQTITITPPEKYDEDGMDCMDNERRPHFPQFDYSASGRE
Sequence of Ribosomal protein S6 kinase alpha-5 (Homo sapiens) (O75582 whole entry, looked up): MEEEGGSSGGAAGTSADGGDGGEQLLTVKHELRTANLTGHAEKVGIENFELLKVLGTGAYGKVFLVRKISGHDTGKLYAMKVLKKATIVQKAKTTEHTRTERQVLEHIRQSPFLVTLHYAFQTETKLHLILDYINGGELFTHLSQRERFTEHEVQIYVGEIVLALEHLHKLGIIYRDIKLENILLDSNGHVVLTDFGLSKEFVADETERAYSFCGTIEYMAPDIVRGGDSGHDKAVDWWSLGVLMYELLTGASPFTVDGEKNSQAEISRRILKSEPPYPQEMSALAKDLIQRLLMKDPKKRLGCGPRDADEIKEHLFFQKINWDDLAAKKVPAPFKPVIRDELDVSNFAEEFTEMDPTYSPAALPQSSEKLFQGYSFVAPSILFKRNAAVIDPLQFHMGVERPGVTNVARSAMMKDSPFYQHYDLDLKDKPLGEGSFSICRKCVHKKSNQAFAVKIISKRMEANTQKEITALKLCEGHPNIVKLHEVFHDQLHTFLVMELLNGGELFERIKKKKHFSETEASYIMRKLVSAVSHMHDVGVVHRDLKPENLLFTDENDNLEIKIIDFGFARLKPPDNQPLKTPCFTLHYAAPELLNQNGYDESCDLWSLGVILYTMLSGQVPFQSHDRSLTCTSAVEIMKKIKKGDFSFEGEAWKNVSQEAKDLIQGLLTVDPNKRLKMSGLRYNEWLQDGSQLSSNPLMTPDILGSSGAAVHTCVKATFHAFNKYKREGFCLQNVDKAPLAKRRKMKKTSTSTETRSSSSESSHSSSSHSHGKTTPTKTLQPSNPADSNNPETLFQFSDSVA

Turning to `CC[C@H](C)[C@H](NC(=O)CCC(=O)N[C@@H](CCCCNC(=O)[C@@H](CCCNC(=N)N)NC(=O)CCCCCCCC(=O)N1CCN(c2ncnc3[nH]ccc23)CC1)C(=O)N[C@H](CCCNC(=N)N)C(=O)N[C@H](CCCNC(=N)N)C(=O)N[C@H](CCCNC(=N)N)C(N)=O)C(=O)NCC(=O)CF`, the values for the Kinact in series [1] and in [4] were 4.2 10^-4/s and 5.1 10^-4/s, respectively. In addition, the Ki in series [2] came to 0.0068 nM. The Activity entry in series [3] was “Tde”.

Consider `CC[C@H](C)[C@H](NC(=O)CCC(=O)N[C@@H](CCCCNC(=O)[C@@H](CCCNC(=N)N)NC(=O)CCCCCCCC(=O)N1CCN(c2ncnc3[nH]ccc23)CC1)C(N)=O)C(=O)NCC(=O)CF`, for which the T1/2 in [5] is > 2.5 h; in [6] it was 5.76 h. The Ki in series [2] was 4.2 nM. Also, the Activity entry in series [3] was “Tde”. In series [4], the Kinact is 3.3 10^-5/s.

With `CC[C@H](C)[C@H](NC(=O)CCC(=O)N[C@@H](CCCCNC(=O)[C@@H](CCCNC(=N)N)NC(=O)CCCCCCCC(=O)N1CCN(c2ncnc3[nH]ccc23)CC1)C(=O)N[C@H](CCCNC(=N)N)C(=O)N[C@H](CCCNC(=N)N)C(=O)N[C@H](CCCCNC(=O)c1ccc(-c2c3ccc(=[N+](C)C)cc-3oc3cc(N(C)C)ccc23)c(C(=O)O)c1)C(N)=O)C(=O)NCC(=O)CF`, the result in series [7], in series [8], in [9], in series [10], in series [11] and in series [12] was Active. The result in series [13], in [14], in series [15], in series [16], in series [17] and in [18] was Active. Moreover, the result in [19] and in [20] was Active.

Consider `CC[C@H](C)[C@H](NC(=O)CCC(=O)N[C@@H](CCCCNC(=O)[C@@H](CCCNC(=N)N)NC(=O)CCCCCCCC(=O)N1CCN(c2ncnc3[nH]ccc23)CC1)C(=O)N[C@H](CCCNC(=N)N)C(N)=O)C(=O)NCC(C)=O`, for which, in series [21], the dissociation constant Kd is 0.63 nM. In addition, the K in series [22] was 3.8 10^7/M/s. Besides, in series [5], the T1/2 came to 0.00833 h. For the same compound, the IC50 in series [23] was 790 nM.

With `NC(=O)CF` [MONOFLUOROACETAMIDE], in series [24], the half-life at 150 µM is > 70 h.
